# Assay results reported in the Deep4Chem optical property database.
# Assay: solvent given as SMILES
compound,measurement,setting,value
Cc1ccc(-c2nc(-c3cccc(C#N)c3)[nH]c2-c2ccc(C)cc2)cc1,absorption maximum,in CO,315 nm
CC(C)(C)c1ccc2c(c1)c1cc(C(C)(C)C)ccc1n2-c1cccs1,absorption maximum,in ClCCl,340 nm
Cc1cc(C)c(C2=C3C=CC4=[N+]3[B-]3(Oc5ccccc54)Oc4ccccc4-c4ccc2n43)c(C)c1 (stereo not drawn),absorption maximum,in ClC(Cl)Cl,626 nm
O=C(c1ccc(-n2c3ccccc3c3ccccc32)cc1)c1ccc(-n2c3ccccc3c3ccccc32)cc1,absorption maximum,in Cc1ccccc1,340 nm
C(=C\c1nc2ccccc2[nH]1)/c1ccc(/C=C/c2nc3ccccc3[nH]2)cc1,absorption maximum,in C1CCOC1,389 nm
same,absorption maximum,in CC#N,382 nm
same,absorption maximum,in CC(C)=O,395 nm
same,absorption maximum,in CN(C)C=O,390 nm
same,absorption maximum,in CO,384 nm
same,absorption maximum,in CS(C)=O,392 nm
N#Cc1ccccc1N1c2sc3ccccc3c2Sc2c1sc1ccccc21,absorption maximum,in ClCCl,411 nm
COCCOCCOCCOc1cc(C=O)c(OCCOCCOCCOC)cc1C=O,absorption maximum,in CC(C)(C)O,393 nm
same,absorption maximum,in CC(C)CO,390 nm
same,absorption maximum,in CC(C)O,391 nm
same,absorption maximum,in CCCCO,378 nm
same,absorption maximum,in CCCO,367 nm
same,absorption maximum,in CCO,364 nm
same,absorption maximum,in CN(C)C=O,393 nm
same,absorption maximum,in CNC=O,350 nm
same,absorption maximum,in CO,354 nm
same,absorption maximum,in NC=O,354 nm
same,absorption maximum,in O,394 nm
CCN1CCN(c2ccc(/N=N/c3ccc([N+](=O)[O-])cc3)cc2)CC1,absorption maximum,in CCOC(C)=O,448 nm
C#CCOc1ccc(/C=C/C2=[N+]3C(=C(c4ccccc4)c4c(C)cc(C)n4[B-]3(F)F)C(C)=C2)cc1,absorption maximum,in CO,563 nm
CCCCCCCCn1cc(-n2c(-c3cc(-c4nc5ccc(C)cc5n4-c4cn(CCCCCCCC)nn4)cc(-c4nc5ccc(C)cc5n4-c4cn(CCCCCCCC)nn4)c3)nc3ccc(C)cc32)nn1,absorption maximum,in ClCCl,309.5 nm
CN(C)c1nc(N(C)C)c2nc(C#N)n(Cc3ccccc3)c2n1,absorption maximum,in C1COCCO1,345 nm
same,absorption maximum,in CC#N,344 nm
same,absorption maximum,in CO,342 nm
same,absorption maximum,in ClCCl,348 nm
C/C(=C\c1ccc(C)cc1)c1nc2ccccc2o1,absorption maximum,in C1CCCCC1,315 nm
same,absorption maximum,in CO,315 nm
c1ccc(N(c2ccccc2)c2ccc(N(c3ccccc3)c3ccc4ccc5c(N(c6ccccc6)c6ccc(N(c7ccccc7)c7ccccc7)cc6)ccc6ccc3c4c65)cc2)cc1,absorption maximum,in ClCCl,438 nm
CCCCCn1c2ccc(S(=O)(=O)Cl)cc2c(=O)c2cc(S(=O)(=O)Cl)ccc21,absorption maximum,in CS(C)=O,406 nm
CCN(CC)c1ccc2c(c1)oc(=O)c1cc3c(-c4ccccc4)nn(-c4ccccc4)c3nc12,absorption maximum,in ClCCl,359 nm
CC(C)(C)c1ccc(C2=CC3=C(c4ccccc4)c4cc(-c5ccc(C(C)(C)C)cc5)c(-c5ccc(C(C)(C)C)cc5)n4[B-](F)(F)[N+]3=C2c2ccc(C(C)(C)C)cc2)cc1,absorption maximum,in C1CCCCC1,602 nm
same,absorption maximum,in C1CCOC1,601 nm
same,absorption maximum,in CC#N,590 nm
same,absorption maximum,in Cc1ccccc1,605 nm
same,absorption maximum,in ClCCl,598 nm
COc1ccc(C#Cc2ncc(-c3ccccc3)o2)cc1OC,absorption maximum,in ClCCl,330 nm
C(/C=C/c1ccc(N(c2ccccc2)c2ccccc2)cc1)=C\c1ccncc1,absorption maximum,in C1COCCO1,395 nm
same,absorption maximum,in CC#N,396 nm
same,absorption maximum,in CCCCCCC,393 nm
same,absorption maximum,in CO,399 nm
COc1ccc2c(c1)C(=O)c1cc(OC)cc(OC)c1-2,absorption maximum,in C1CCCCC1,478 nm
same,absorption maximum,in CC#N,491 nm
same,absorption maximum,in CCO,492 nm
CC\C=C/C=C/C=C/C=C\CCCCCCCC(=O)O,absorption maximum,in C1COCCO1,322.7 nm
same,absorption maximum,in CCCCCC,318.9 nm
same,absorption maximum,in CCCCCCCCCC,320.8 nm
same,absorption maximum,in CCCCO,320.6 nm
same,absorption maximum,in CCO,319.2 nm
same,absorption maximum,in CCOCC,318.8 nm
same,absorption maximum,in CO,318.6 nm
same,absorption maximum,in ClC(Cl)Cl,324.8 nm
same,absorption maximum,in c1ccccc1,325.3 nm
FC(F)(F)C(F)(F)C(F)(F)C1=NC2=C(Sc3ccccc3)C=C3c4cc(Sc5ccccc5)c5nc(C(F)(F)C(F)(F)C(F)(F)F)nc6c(Sc7ccccc7)cc(c4c56)=C4C=C(Sc5ccccc5)C(=N1)C2C34 (stereo not drawn),absorption maximum,in C1CCOC1,565 nm
Cc1c(C)c(N2c3ccccc3Oc3ccccc32)c(C)c(C)c1B(c1c(C)c(C)c(N2c3ccccc3Oc3ccccc32)c(C)c1C)c1c(C)c(C)c(N2c3ccccc3Oc3ccccc32)c(C)c1C,absorption maximum,in CC(C)(C)c1ccc(-n2c3ccc([Si](c4ccccc4)(c4ccccc4)c4ccccc4)cc3c3cc([Si](c4ccccc4)(c4ccccc4)c4ccccc4)ccc32)cc1,398 nm
CCCCCCC(CCCCCC)N1C(=O)c2cccc3c(-c4ccc(C#N)cc4)ccc(c23)C1=O,absorption maximum,in CCCCCC,355.6 nm
same,absorption maximum,in CCCCCCCCCCCCCC,356.2 nm
same,absorption maximum,in CCCCCCCCCCCO,365.8 nm
same,absorption maximum,in CCCCO,367.8 nm
same,absorption maximum,in CN(C)C=O,367.8 nm
same,absorption maximum,in Cc1ccccc1,364.6 nm
same,absorption maximum,in ClC(Cl)Cl,366.4 nm
c1ccc2c(c1)oc1nc3oc4ccc(-n5c6ccccc6c6cc(-n7c8ccccc8c8ccccc87)ccc65)cc4c3cc12,absorption maximum,in ClC(Cl)Cl,354 nm
CC(=O)OC[C@@H]1O[C@H](n2cnc3c2N=CN2Cc4c[n+](C)c(C)nc4N=C32)[C@@H](O)[C@H]1O,absorption maximum,in CC#N,392 nm
same,absorption maximum,in CCO,389 nm
same,absorption maximum,in O,383 nm
N#CC1=c2cc3c4c(c2Oc2c1cc1c5c2CCCN5CCC1)CCC[N+]=4CCC3,absorption maximum,in CCO,682 nm
CCOC(=O)C1=C(N)n2c(=O)c3ccccc3c(=O)n2C1c1cccs1 (stereo not drawn),absorption maximum,in CS(C)=O,365 nm
c1cc2c3c(cccc3c1)-c1c-2ccc2c1ccc1ccccc12,absorption maximum,in CCCCCCC,405 nm
CN(C)c1ccc(-c2ccc(-c3cc(-c4ccccc4)c(-c4ccccc4)c(-c4ccccc4)c3-c3ccccc3)cc2)cc1,absorption maximum,in ClC(Cl)Cl,323 nm
CCCC1(CCC)c2ccccc2-c2ccccc21,absorption maximum,in C1CCCCC1,304 nm
CC1=CC(C)=[N+]2C1=C(c1ccc(N(C)C)cc1)c1c(C)cc(/C=C/c3ccc(N(C)C)cc3)n1[B-]2(F)F,absorption maximum,in CCOCC,591 nm
CC1(C)c2ccccc2N(c2ccc(-c3ccc(C#N)cc3)cc2)c2ccccc21,absorption maximum,in Cc1ccccc1,358 nm
CCOc1ccc2c(-c3nc(-c4cccc(Br)c4)no3)cc(=O)oc2c1,absorption maximum,in CCO,388 nm
same,absorption maximum,in ClC(Cl)Cl,403 nm
CN(C)c1ccc2c(-c3cc(C(=O)[O-])ccc3C(=O)[O-])c3ccc(=[N+](C)C)cc-3oc2c1,absorption maximum,in CCO,538 nm
same,absorption maximum,in O,549 nm
Nc1ccc2[nH]ncc2c1,absorption maximum,in C1CCCCC1,326 nm
c1cc2c(C3SCCCS3)c3ccc(=[N+]4CCCCC4)cc-3oc2cc1N1CCCCC1,absorption maximum,in CO,583.65 nm
O=C(c1sc(-c2ccc(-c3cc(-c4cccs4)c(C(=O)N4CCOCC4)s3)s2)cc1-c1cccs1)N1CCOCC1,absorption maximum,in ClCCl,379 nm
CN(C)c1ccc(C#Cc2ccc3ccc4c(C#Cc5ccc(N(C)C)cc5)ccc5ccc2c3c54)cc1,absorption maximum,in C1COCCO1,430 nm
same,absorption maximum,in CC(C)=O,447 nm
same,absorption maximum,in CCCCCC,439 nm
same,absorption maximum,in CCCCCCO,430 nm
same,absorption maximum,in CCO,431 nm
same,absorption maximum,in CCOC(C)=O,431 nm
same,absorption maximum,in CO,436 nm
same,absorption maximum,in Cc1ccccc1,433 nm
same,absorption maximum,in ClCCl,439 nm
CN(C)c1ccc2nc(-c3ccc(C(=O)OC[C@H](NC(=O)OC(C)(C)C)C(=O)OCc4ccccc4)cc3)sc2c1,absorption maximum,in C1CCCCC1,390 nm
same,absorption maximum,in CC#N,398 nm
same,absorption maximum,in CC(C)O,397 nm
same,absorption maximum,in CO,397 nm
same,absorption maximum,in CS(C)=O,408 nm
same,absorption maximum,in ClC(Cl)Cl,401 nm
same,absorption maximum,in c1ccccc1,397 nm
CCn1c2ccccc2c2cc(-c3cc(-c4ccc5c(c4)c4ccccc4n5CC)ncn3)ccc21,absorption maximum,in C1CCOC1,360 nm
same,absorption maximum,in CCOC(C)=O,359 nm
same,absorption maximum,in CN(C)C=O,363 nm
same,absorption maximum,in Cc1ccccc1,360 nm
same,absorption maximum,in ClCCl,360 nm
CN(C)c1ccc(/C=C/c2nc3c4ccccc4c4ccccc4c3[nH]2)cc1,absorption maximum,in C1CCOC1,390 nm
same,absorption maximum,in C1COCCO1,389 nm
same,absorption maximum,in CC1CCCCC1,386 nm
same,absorption maximum,in CC#N,389 nm
same,absorption maximum,in CCOC(C)=O,387 nm
same,absorption maximum,in CCOCC,386 nm
same,absorption maximum,in CN(C)C=O,392 nm
same,absorption maximum,in COC(C)=O,389 nm
same,absorption maximum,in CS(C)=O,396 nm
same,absorption maximum,in Cc1ccccc1,393 nm
same,absorption maximum,in ClC(Cl)Cl,393 nm
CCOC(=O)c1c(-c2cc3ccccc3oc2=O)nn(-c2cccc(Cl)c2)c1C(=O)OCC,absorption maximum,in ClCCl,325 nm
CCc1cccc(CC)c1-c1c2ccccc2c(-c2c(CC)cccc2CC)c2cc3ccccc3cc12,absorption maximum,in ClCCl,495 nm
O=c1oc2cccc3c4cccc5ccc6c7cc(F)ccc7c1c(c23)c6c54,absorption maximum,in C1CCOC1,411 nm
CC1=CC2=Nc3nc(C)[n+](C)cc3CN2C=C1,absorption maximum,in CC#N,403 nm
same,absorption maximum,in CCO,398 nm
same,absorption maximum,in O,392 nm
CC(C)(C)c1ccc2oc3nc4oc5ccc(-n6c7ccc(C(C)(C)C)cc7c7cc(C(C)(C)C)ccc76)cc5c4cc3c2c1,absorption maximum,in ClC(Cl)Cl,346 nm
Cc1cc2ccc(-c3cccc4cccc(-c5ccc6cc(C)c(=O)oc6c5)c34)cc2oc1=O,absorption maximum,in C1CCCCC1,324 nm
same,absorption maximum,in C1COCCO1,324 nm
same,absorption maximum,in CC#N,326 nm
same,absorption maximum,in CCO,328 nm
same,absorption maximum,in CCOC(C)=O,325 nm
same,absorption maximum,in CN(C)C=O,326 nm
same,absorption maximum,in CO,328 nm
same,absorption maximum,in c1ccccc1,324 nm
COc1nc(Nc2ccc3c4c(cccc24)C(=O)c2ccccc2-3)nc(OC)n1,absorption maximum,in CC#N,413.91 nm
same,absorption maximum,in CC(C)O,421.94 nm
same,absorption maximum,in CCCCOCCCC,421.94 nm
same,absorption maximum,in CCOC(C)=O,418.94 nm
same,absorption maximum,in CO,419.99 nm
same,absorption maximum,in Cc1ccccc1,426.99 nm
CC(C)(C)c1ccc2c(c1)c1cc(C(C)(C)C)ccc1n2-c1ccc(C#Cc2ccc3c4ccc(C#Cc5ccc(C=C(C#N)C#N)cc5)cc4n(-c4ccc(C(F)(F)F)cc4)c3c2)cc1,absorption maximum,in ClCCl,355 nm
CCCC1(CCC)c2cc(-c3ccc(C(C)(C)C)cc3)ccc2-c2ccc(-c3ccc4c(c3)C(CCC)(CCC)c3cc(-c5ccc6c(c5)C(CCC)(CCC)c5cc(-c7ccc(C(C)(C)C)cc7)ccc5-6)ccc3-4)cc21,absorption maximum,in C1CCCCC1,362 nm
